Laboratory results as given in publication PMC3713009 (PLoS ONE, 2013).
Like-named read-outs stand apart in the source and are kept apart here.

How the values were obtained:
HDAC3/NCOR1 complex = HDAC3/NCOR1 complex (Homo sapiens, UniProt O15379); experiment: HDAC3 enzyme assay (fluorescent activity kit, HDAC3/NCOR1 complex); format: biochemical; conditions: for inhibition at 10 µM: library screen, o-aminoanilides T1–T336 without purification, values read from Figure 7; for IC50 HDAC3 / IC50: class I, means of at least three experiments;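 as to all read-outs here: in vitro enzyme activity of HDAC3 complexed with NCOR1, fluorescence read at 360 nm excitation and 460 nm emission, inhibition relative to uninhibited control wells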
Protocol: Because HDAC3 forms a complex with NCOR1 in cells [45], we used HDAC3/NCOR1 complex in in vitro HDAC3 assay. […] Therefore, as a primary in vitro screening for HDAC3 selectivity, we used total HDACs from HeLa nuclear extracts, in which the combined deacetylase activity of HDAC1 and HDAC2 is much higher than the activity of HDAC3 [46]. Initially, o-aminoanilides T1–T336 (10 µM) and hydroxamates T337–T504 (1 µM) were tested for inhibitory activity against HDAC3. […] The fluorescence of the wells was measured on a fluorometric reader with excitation set at 360 nm and emission detection set at 460 nm, and the values of % inhibition were calculated from the fluorescence readings of inhibited wells relative to those of control wells. […] IC50 values were determined by regression analysis of the concentration/inhibition data.

[1] = target: total HDACs from HeLa nuclear extracts; experiment: Total HDACs enzyme assay (HeLa nuclear extracts); format: biochemical; conditions: pure resynthesized compounds, means of at least three experiments
HDAC1 = target: T1, HDAC1 (Homo sapiens, UniProt Q13547); experiment: HDAC1 enzyme assay; format: biochemical; conditions: class I; means of at least three experiments
T1 construct: purchased SignalChem Pharmaceuticals Inc. H83-30G
Protocol: (§1) The fluorescence of the wells was measured on a fluorometric reader with excitation set at 360 nm and emission detection set at 460 nm, and the values of % inhibition were calculated from the fluorescence readings of inhibited wells relative to those of control wells. […] IC50 values were determined by regression analysis of the concentration/inhibition data.

[2] = tested on: acetylated NF-κB in HCT116 cells; experiment: Western blot of acetylated NF-κB in HCT116 cells; format: cell-based, human; conditions: 8 h treatment
Protocol: (§2) Since HDAC3 is known to catalyze the deacetylation of NF-κB [13]–[14], we initially examined the effects of the inhibitors on the acetylation levels of NF-κB in HCT116 cells.
(§3) Protein concentrations of the lysates were determined using a Bradford protein assay kit (Bio-Rad Laboratories); equivalent amounts of proteins from each lysate were resolved in AnykD SDS-polyacrylamide gels and then transferred onto nitrocellulose membranes (Bio-Rad Laboratories). After having been blocked for 30 min with Tris-buffered saline (TBS) containing 3% skimmed milk, the transblotted membranes were incubated overnight at 4°C with acetyl NF-κB antibody (CST) (1∶1000 dilution), NF-κB antibody (CST) (1∶1000 dilution), acetyl α-tubulin antibody (Sigma) (1∶2000 dilution), α-tubulin antibody (Sigma) (1∶2000 dilution), acetyl p53 antibody (CST) (1∶500 dilution) or p53 antibody (CALBIOCHEM) (1∶500 dilution) in TBS containing 3% skimmed milk. […] The immunoblots were visualized by enhanced chemiluminescence.

[3] = tested on: acetylated p53 in HCT116 cells; experiment: Western blot of acetylated p53 in HCT116 cells; format: cell-based, human; conditions: 8 h treatment
Protocol: as §2, §3

[4] = tested on: acetylated α-tubulin in HCT116 cells; experiment: Western blot of acetylated α-tubulin in HCT116 cells; format: cell-based, human; conditions: 8 h treatment
Protocol: as §2, §3

[5] = tested on: colon cancer HCT116 cells; experiment: Cell growth inhibition assay (MTT), HCT116; format: cell-based; conditions: Homo sapiens, read-out: GI50 HCT116 (colon cancer)
Protocol: (§4) The solubilized dye was quantified by colorimetric reading at 570 nm. The absorbance values of control wells (C) and test wells (T) were measured. The absorbance of the test wells (T 0) was also measured at time 0 (addition of compounds). Using these measurements, cell growth inhibition (percentage of growth) by a test inhibitor at each concentration used was calculated as: % growth = 100×[(T – T 0)/(C – T 0)], when T>T 0 and % growth = 100× [(T – T 0)/T], when T<T 0.

[6] = tested on: prostate cancer PC3 cells; experiment: Cell growth inhibition assay (MTT), PC3; format: cell-based; conditions: Homo sapiens, read-out: GI50 PC3 (prostate cancer)
Protocol: as §4

[7] = tested on: OM10.1 cells latently infected with HIV-1; experiment: Viral p24 antigen assay in latently HIV-1-infected OM10.1 cells; format: cell-based
Protocol: Figure 13 Induction of viral replication from OM10.1 cells latently infected with HIV-1. […] HIV-1 p24 antigen in the cell culture supernatant was measured using ELISA. Experiments were performed in triplicate, and the means ±S.D. are indicated. **P<0.01, *P<0.05; Student’s t test results indicated differences between DMSO and inhibitors.
The p24 antigen level in the cell culture supernatant was measured by p24 antigen capture ELISA assay using a commercial kit (RETRO-TEK HIV-1 p24 Antigen ELISA kit; Zepto Metrix, Buffalo, NY, USA) according to the method reported in ref [54].

HDAC8 = target: T2, HDAC8 (Homo sapiens, UniProt Q9BY41); experiment: HDAC8 enzyme assay; format: biochemical; conditions: class I; means of at least three experiments
T2 construct: purchased Cyclex Company Limited CY-1158
T2 sequence (Q9BY41 1-377): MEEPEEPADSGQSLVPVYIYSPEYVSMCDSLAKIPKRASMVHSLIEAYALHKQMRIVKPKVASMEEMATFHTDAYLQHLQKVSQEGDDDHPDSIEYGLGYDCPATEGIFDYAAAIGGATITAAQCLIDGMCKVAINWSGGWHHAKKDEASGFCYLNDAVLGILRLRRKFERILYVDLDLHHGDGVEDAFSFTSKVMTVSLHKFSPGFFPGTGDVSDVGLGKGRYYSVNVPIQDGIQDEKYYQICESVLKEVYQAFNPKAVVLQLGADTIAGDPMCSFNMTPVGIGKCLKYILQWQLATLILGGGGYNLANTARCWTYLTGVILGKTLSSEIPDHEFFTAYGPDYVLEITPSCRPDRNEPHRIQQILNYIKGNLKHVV
Protocol: as §1

HDAC4 = target: T3, HDAC4 (Homo sapiens, UniProt P56524); experiment: HDAC4 enzyme assay; format: biochemical; conditions: class IIa; means of at least three experiments
T3 construct: purchased BPS Bioscience Incorporated

HDAC6 = target: T4, HDAC6 (Homo sapiens, UniProt Q9UBN7); experiment: HDAC6 enzyme assay; format: biochemical; conditions: class IIb; means of at least three experiments
T4 construct: purchased BIOMOL Research Laboratories SE-508
T4 sequence (Q9UBN7 1-1215): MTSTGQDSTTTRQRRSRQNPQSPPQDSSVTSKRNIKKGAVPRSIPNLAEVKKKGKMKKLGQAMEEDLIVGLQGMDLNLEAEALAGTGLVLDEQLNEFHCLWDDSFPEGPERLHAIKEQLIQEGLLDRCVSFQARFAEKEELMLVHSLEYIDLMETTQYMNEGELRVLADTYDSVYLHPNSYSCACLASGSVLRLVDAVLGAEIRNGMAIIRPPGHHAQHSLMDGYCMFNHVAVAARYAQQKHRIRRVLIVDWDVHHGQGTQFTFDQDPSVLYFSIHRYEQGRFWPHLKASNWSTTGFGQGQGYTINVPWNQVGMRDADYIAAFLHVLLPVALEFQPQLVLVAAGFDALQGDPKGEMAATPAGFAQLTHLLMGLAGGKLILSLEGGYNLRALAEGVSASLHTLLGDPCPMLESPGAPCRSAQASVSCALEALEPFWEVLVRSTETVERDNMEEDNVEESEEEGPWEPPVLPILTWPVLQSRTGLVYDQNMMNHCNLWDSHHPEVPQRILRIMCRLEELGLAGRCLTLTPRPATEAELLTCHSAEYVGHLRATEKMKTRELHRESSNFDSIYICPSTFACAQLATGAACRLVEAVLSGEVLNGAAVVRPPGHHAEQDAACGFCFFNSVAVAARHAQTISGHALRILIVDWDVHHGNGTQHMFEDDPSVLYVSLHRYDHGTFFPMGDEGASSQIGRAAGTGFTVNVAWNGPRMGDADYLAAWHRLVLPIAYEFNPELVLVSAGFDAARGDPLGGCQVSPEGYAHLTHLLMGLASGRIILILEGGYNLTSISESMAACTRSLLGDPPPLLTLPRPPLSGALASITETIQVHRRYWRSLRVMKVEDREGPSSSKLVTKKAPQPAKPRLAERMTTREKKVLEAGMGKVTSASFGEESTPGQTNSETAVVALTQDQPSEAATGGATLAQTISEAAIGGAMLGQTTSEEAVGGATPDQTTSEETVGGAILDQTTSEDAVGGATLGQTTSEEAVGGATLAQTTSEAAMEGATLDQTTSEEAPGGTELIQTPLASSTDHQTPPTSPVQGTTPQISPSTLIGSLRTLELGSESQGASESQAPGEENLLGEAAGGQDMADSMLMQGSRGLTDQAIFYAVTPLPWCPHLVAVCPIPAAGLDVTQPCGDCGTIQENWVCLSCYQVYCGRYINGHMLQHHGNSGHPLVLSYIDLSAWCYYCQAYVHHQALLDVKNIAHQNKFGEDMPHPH

[8] = 1 µM, means of two experiments, read-out: HDAC3 inhibition (%)
[9] = 3 µM, means of two experiments, read-out: HDAC3 inhibition (%)
[10] = HCT-116, 48 h exposure, MTT, means of at least three experiments
[11] = PC-3, 48 h exposure, MTT, means of at least three experiments
[12] = 48 h, 0.1, 1 and 10 µM, effect at 1 µM and/or 10 µM

HDAC3/NCOR1 complex, sequence (O15379 whole entry): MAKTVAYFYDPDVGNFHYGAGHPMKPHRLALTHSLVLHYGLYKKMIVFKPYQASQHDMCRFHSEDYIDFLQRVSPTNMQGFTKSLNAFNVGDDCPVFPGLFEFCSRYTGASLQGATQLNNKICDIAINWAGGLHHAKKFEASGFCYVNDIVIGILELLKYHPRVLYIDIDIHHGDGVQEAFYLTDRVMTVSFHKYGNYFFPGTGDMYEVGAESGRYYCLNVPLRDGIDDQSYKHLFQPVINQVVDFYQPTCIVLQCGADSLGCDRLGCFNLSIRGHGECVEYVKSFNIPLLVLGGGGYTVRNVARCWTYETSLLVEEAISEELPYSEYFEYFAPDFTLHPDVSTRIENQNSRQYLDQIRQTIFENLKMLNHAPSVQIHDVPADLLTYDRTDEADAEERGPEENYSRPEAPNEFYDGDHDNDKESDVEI
HDAC3/NCOR1 complex, sequence (O75376 395-489 partner limits assumed): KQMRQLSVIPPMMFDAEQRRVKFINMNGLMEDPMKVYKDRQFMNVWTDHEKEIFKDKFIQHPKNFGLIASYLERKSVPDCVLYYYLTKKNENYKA
T1 sequence (Q13547 whole entry): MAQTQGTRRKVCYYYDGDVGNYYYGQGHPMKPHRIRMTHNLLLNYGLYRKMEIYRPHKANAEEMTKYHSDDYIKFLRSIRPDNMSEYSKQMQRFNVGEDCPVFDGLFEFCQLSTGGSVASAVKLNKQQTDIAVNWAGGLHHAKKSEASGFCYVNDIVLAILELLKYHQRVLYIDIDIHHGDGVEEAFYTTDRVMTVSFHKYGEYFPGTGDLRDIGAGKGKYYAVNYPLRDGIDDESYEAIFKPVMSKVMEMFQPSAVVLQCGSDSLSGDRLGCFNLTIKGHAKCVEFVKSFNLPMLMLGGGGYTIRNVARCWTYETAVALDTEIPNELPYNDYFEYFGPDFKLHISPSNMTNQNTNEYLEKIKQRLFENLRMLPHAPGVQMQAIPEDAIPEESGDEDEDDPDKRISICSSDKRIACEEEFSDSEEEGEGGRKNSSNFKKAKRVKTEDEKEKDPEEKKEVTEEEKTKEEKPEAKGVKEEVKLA
T3 sequence (P56524 627-1084 limits assumed): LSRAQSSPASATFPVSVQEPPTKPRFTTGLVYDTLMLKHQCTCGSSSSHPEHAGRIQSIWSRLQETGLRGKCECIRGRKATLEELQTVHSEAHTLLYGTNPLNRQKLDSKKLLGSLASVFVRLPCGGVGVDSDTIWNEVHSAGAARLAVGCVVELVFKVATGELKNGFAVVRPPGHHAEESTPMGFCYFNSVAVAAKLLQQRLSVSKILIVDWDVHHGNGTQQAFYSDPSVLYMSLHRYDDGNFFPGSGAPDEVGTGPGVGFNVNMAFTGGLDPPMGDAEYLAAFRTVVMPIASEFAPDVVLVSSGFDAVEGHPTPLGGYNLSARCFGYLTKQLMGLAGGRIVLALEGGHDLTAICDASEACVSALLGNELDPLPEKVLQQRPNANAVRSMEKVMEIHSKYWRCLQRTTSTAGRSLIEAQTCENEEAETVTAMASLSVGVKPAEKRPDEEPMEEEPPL

## Nc1ccccc1NC(=O)c1ccc(-c2cn(CCc3ccsc3)nn2)cc1 [Compound T247, N-(2-Aminophenyl)-4-[1-(2-thiophen-3-ylethyl)-1H-[1], [2], [3]triazol-4-yl]benzamide]
HDAC3/NCOR1 complex; [8]
  inhibition at 1 µM: 89%
HDAC3/NCOR1 complex; [9]
  inhibition at 3 µM: 95%
HDAC3/NCOR1 complex
  inhibition at 10 µM: 93%
  IC50 HDAC3: submicromolar
[1]
  IC50: > 100 µM
HDAC1
  IC50: 19 µM
[2]
  NF-κB acetylation: dose-dependent increase of NF-κB acetylation
[3]
  levels of acetylated p53: not elevated
[4]
  acetylation of α-tubulin: did not enhance the acetylation of α-tubulin
[5]; [10]
  GI50: 1.9 µM
[6]; [11]
  GI50: 1.4 µM
[7]; [12]
  HIV-1 expression (p24 antigen in supernatant): significantly stimulated HIV-1 expression

## Nc1ccccc1NC(=O)c1ccc(-c2cn(CCc3cccc([N+](=O)[O-])c3)nn2)s1 [Compound T326, 5-{1-[2-(3-Nitrophenyl)ethyl]-1H-[1], [2], [3]triazol-4-yl}thiophene-2-carboxylic acid (2-aminophenyl)amide]
HDAC3/NCOR1 complex; [8]
  inhibition at 1 µM: 86%
HDAC3/NCOR1 complex; [9]
  inhibition at 3 µM: 95%
HDAC3/NCOR1 complex
  inhibition at 10 µM: 98%
  IC50: 0.26 µM
  IC50 HDAC3: submicromolar
[1]
  IC50: > 100 µM
HDAC1
  IC50: > 100 µM
HDAC8
  IC50: > 100 µM
HDAC4
  IC50: > 100 µM
HDAC6
  IC50: > 100 µM
[2]
  NF-κB acetylation: dose-dependent increase of NF-κB acetylation
[3]
  levels of acetylated p53: not elevated
[4]
  acetylation of α-tubulin: did not enhance the acetylation of α-tubulin
[5]; [10]
  GI50: 0.94 µM
[6]; [11]
  GI50: 1 µM
[7]; 48 h, 10 µM
  HIV-1 expression (p24 antigen in supernatant): less active at 10 µM due to cytotoxicity
[7]; [12]
  HIV-1 expression (p24 antigen in supernatant): significantly stimulated HIV-1 expression

## Nc1ccccc1NC(=O)CCc1cn(Cc2cccc(-c3ccccc3)c2)nn1 [Compound T52]
HDAC3/NCOR1 complex; 1 µM, means of two experiments
  HDAC3 inhibition (%): 55%
HDAC3/NCOR1 complex; 3 µM, means of two experiments
  HDAC3 inhibition (%): 81%

## O=C(CCCCCCC(=O)Nc1ccccc1)NO [vorinostat (3), vorinostat, reference compound]
HDAC3/NCOR1 complex; read-out: HDAC3 inhibition (%)
  inhibition at 1 µM: 83%
  inhibition at 3 µM: 93%
HDAC3/NCOR1 complex; read-out: HDAC3 inhibition (%) at 1 µM
  inhibition at 1 µM: 98%
[2]
  NF-κB acetylation: induced non-selective acetylation of NF-κB and p53
[3]
  levels of acetylated p53: induced non-selective acetylation of NF-κB and p53
[5]; HCT-116, 48 h
  GI50: 1.3 µM
[6]; PC-3, 48 h
  GI50: 1.6 µM
[7]; [12]
  HIV-1 expression (p24 antigen in supernatant): significantly stimulated HIV-1 expression

## Cc1ccccc1CCn1cc(-c2ccc(C(=O)Nc3ccccc3N)cc2)nn1 [Compound T263]
HDAC3/NCOR1 complex; 1 µM, means of two experiments
  HDAC3 inhibition (%): 74%
HDAC3/NCOR1 complex; 3 µM, means of two experiments
  HDAC3 inhibition (%): 91%

## COc1ccccc1CCn1cc(-c2ccc(C(=O)Nc3ccccc3N)cc2)nn1 [Compound T266]
HDAC3/NCOR1 complex; 1 µM, means of two experiments
  HDAC3 inhibition (%): 73%
HDAC3/NCOR1 complex; 3 µM, means of two experiments
  HDAC3 inhibition (%): 91%

## Nc1ccccc1NC(=O)c1cccc(-c2cn(CC(=O)c3ccccc3)nn2)c1 [Compound T199]
HDAC3/NCOR1 complex; 1 µM, means of two experiments
  HDAC3 inhibition (%): 59%
HDAC3/NCOR1 complex; 3 µM, means of two experiments
  HDAC3 inhibition (%): 83%

## Nc1ccccc1NC(=O)c1ccc(-c2cn(CCC3CCCCC3)nn2)cc1 [Compound T254]
HDAC3/NCOR1 complex; 1 µM, means of two experiments
  HDAC3 inhibition (%): 55%
HDAC3/NCOR1 complex; 3 µM, means of two experiments
  HDAC3 inhibition (%): 80%

## Nc1ccccc1NC(=O)c1ccc(-c2cn(CCc3ccc(F)cc3)nn2)s1 [Compound T318]
HDAC3/NCOR1 complex; 1 µM, means of two experiments
  HDAC3 inhibition (%): 77%
HDAC3/NCOR1 complex; 3 µM, means of two experiments
  HDAC3 inhibition (%): 91%

## Nc1ccccc1NC(=O)c1ccc(-c2cn(Cc3cccc4ccccc34)nn2)cc1 [Compound T251]
HDAC3/NCOR1 complex; 1 µM, means of two experiments
  HDAC3 inhibition (%): 75%
HDAC3/NCOR1 complex; 3 µM, means of two experiments
  HDAC3 inhibition (%): 92%

## Cc1ccc(C(=O)NCC(=O)NCCC(=O)Nc2ccccc2N)cc1 [compound 1, reference compound]
HDAC3/NCOR1 complex; [8]
  inhibition at 1 µM: 9%
HDAC3/NCOR1 complex; [9]
  inhibition at 3 µM: 29%
HDAC3/NCOR1 complex
  inhibition at 10 µM: 47%
  IC50: 19 µM
[1]
  IC50: > 100 µM
HDAC1
  IC50: > 100 µM
HDAC8
  IC50: > 100 µM
HDAC4
  IC50: > 100 µM
HDAC6
  IC50: > 100 µM
[5]; [10]
  GI50: 81 µM
[6]; [11]
  GI50: > 100 µM
[7]; [12]
  HIV-1 expression (p24 antigen in supernatant): did not show any activity

## COc1cccc(CCn2cc(-c3ccc(C(=O)Nc4ccccc4N)cc3)nn2)c1 [Compound T267]
HDAC3/NCOR1 complex; 1 µM, means of two experiments
  HDAC3 inhibition (%): 80%
HDAC3/NCOR1 complex; 3 µM, means of two experiments
  HDAC3 inhibition (%): 92%

## Nc1ccccc1NC(=O)c1ccc(-c2cn(CCc3cccc(F)c3)nn2)cc1 [Compound T261]
HDAC3/NCOR1 complex; 1 µM, means of two experiments
  HDAC3 inhibition (%): 75%
HDAC3/NCOR1 complex; 3 µM, means of two experiments
  HDAC3 inhibition (%): 89%
